Results on two compounds are retold here after article PMC8431370, “The Second-Generation PIM Kinase Inhibitor TP-3654 Resensitizes ABCG2-Overexpressing Multidrug-Resistant Cancer Cells to Cytotoxic Anticancer Drugs” (International Journal of Molecular Sciences, 2021).

Data set [1] deals with T1, ATP-binding cassette (ABC) subfamily G member 2 (ABCG2) (Homo sapiens, UniProt Q9UNQ0).
T1 construct: ABCG2-transfected R482-HEK293 cells
T1 sequence (Q9UNQ0 1-655): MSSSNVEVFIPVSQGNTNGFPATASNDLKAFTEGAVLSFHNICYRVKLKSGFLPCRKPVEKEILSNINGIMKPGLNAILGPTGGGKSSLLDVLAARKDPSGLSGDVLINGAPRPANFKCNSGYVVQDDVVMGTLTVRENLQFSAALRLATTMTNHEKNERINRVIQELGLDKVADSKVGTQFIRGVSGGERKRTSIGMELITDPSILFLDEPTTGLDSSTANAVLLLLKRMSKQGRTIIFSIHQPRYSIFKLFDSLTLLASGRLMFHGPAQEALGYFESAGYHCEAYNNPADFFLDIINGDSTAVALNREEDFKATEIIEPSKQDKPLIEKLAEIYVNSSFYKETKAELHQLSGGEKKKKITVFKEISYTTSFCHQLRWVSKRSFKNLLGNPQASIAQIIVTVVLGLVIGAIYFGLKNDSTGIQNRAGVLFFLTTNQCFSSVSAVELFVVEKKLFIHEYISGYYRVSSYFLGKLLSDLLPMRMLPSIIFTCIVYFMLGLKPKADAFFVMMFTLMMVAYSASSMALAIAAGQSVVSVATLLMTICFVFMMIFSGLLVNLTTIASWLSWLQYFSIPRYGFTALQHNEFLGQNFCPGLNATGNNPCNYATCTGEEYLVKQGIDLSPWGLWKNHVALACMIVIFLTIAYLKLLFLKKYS
As to the kind of experiment: flow cytometry inhibition of pheophorbide A efflux in ABCG2-transfected HEK293 cells (also S1-M1-80 and H460-MX20). In kind it is cell-based. The source says: flow cytometry inhibition of pheophorbide A efflux in ABCG2-transfected HEK293 cells (also S1-M1-80 and H460-MX20) on ATP-binding cassette (ABC) subfamily G member 2 (ABCG2) | TP-3654 inhibited ABCG2-mediated efflux of PhA in ABCG2-transfected R482-HEK293 cells
On the technique in general: In flow cytometry, cells or beads pass a laser one at a time.

Data set [2] concerns the target T1, ATP-binding cassette (ABC) subfamily G member 2 (ABCG2). As to the kind of experiment: flow cytometry of ABCG2-mediated efflux in parental and ABCG2-transfected HEK293 cells. It is filed as cell-based.

Broadly, the IC50 is the concentration at which inhibition is half-maximal. The compound `CC(C)(O)[C@H]1CC[C@H](Nc2ccc3ncc(-c4cccc(C(F)(F)F)c4)n3n2)CC1` [TP-3654] returned an IC50 in data set [1] of about 140 nM.

In the case of `C=Cc1c(C)c2cc3nc(c4c5[nH]c(cc6nc(cc1[nH]2)C(C)=C6CC)c(C)c5C(=O)[C@@H]4C(=O)OC)[C@@H](CCC(=O)O)[C@@H]3C` [pheophorbide A], in data set [2], the “flow cytometry of ABCG2-mediated efflux in parental and ABCG2-transfected HEK293” value was “Flow cytometry analysis of PhA accumulation in parental HEK293 cells and ABCG2-transfected R482-HEK293 cells”.
